Earlier results as cited in patent US20220305218A1, “LUMINAL OXYGEN DELIVERY AND DEVICE FOR TREATING DISEASES AND CONDITIONS ASSOCIATED WITH STRICT ANAEROBIC MICROORGANISMS” (priority 2021, published 2022).

Legend:
[1] = system: C. difficile strains
[2] = system: C. difficile

Row | SMILES | resistance rate [1] | time C. difficile can persist in a vegetative state ([2]; room air (20% oxygen, 160 mm Hg)) | oxygen partial pressure at which C. difficile is unable to grow ([2]; strict, obligate anaerobe)
1 | Cc1ncc([N+](=O)[O-])n1CCO [metronidazole] | ~1% |  | 
2 | O=O [oxygen] |  | ~24 h | ≥ 3 mm Hg
3 | CN[C@H](CC(C)C)C(=O)N[C@H]1C(=O)N[C@@H](CC(N)=O)C(=O)N[C@H]2C(=O)N[C@H]3C(=O)N[C@H](C(=O)N[C@H](C(=O)O)c4cc(O)cc(O)c4-c4cc3ccc4O)[C@H](O)c3ccc(c(Cl)c3)Oc3cc2cc(c3O[C@@H]2O[C@H](CO)[C@@H](O)[C@H](O)[C@H]2O[C@H]2C[C@](C)(N)[C@H](O)[C@H](C)O2)Oc2ccc(cc2Cl)[C@H]1O [vancomycin] | ~1% |  | 
